Here are results for 2 compounds from US5210193A, “Piperazine derivatives” (American Cyanamid Company, priority 1990, dated 1993).

Converted amounts (≈) assume the structure as drawn. Where only a bound is given, the exact number is not on record here.

Experiment [1] deals with Escherichia coli CMC 84-11. Kind of experiment: in vitro antibacterial MIC, agar plate dilution. In kind it is cell-based. The following applies: Escherichia coli, CMC8411, 18 h, 35° C., read-out: MIC. The method, boiled down:
(§1)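 MIC, mcg/ml: lowest concentration with no visible growth after 18 h incubation at 35° C. Mueller-Hinton agar dilution plates; ~10^4 CFU inoculum via Steers replicating device.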

In experiment [2] the test system is Escherichia coli ATCC 25922. Nature of the experiment: in vitro antibacterial MIC, agar plate dilution. In kind it is cell-based. The settings on record: Escherichia coli, ATCC25922, 18 h, 35° C., read-out: MIC. The method, boiled down:
as §1

Experiment [3] relates to Enterobacter aerogenes VGH 84-36. Kind of experiment: in vitro antibacterial MIC, agar plate dilution. In kind it is cell-based. The settings on record: Klebsiella aerogenes, VGH8436, 18 hours, 35° C., read-out: MIC. The method, boiled down:
as §1

Experiment [4] has as its system Klebsiella pneumoniae MOR 84-4. Nature of the experiment: in vitro antibacterial MIC, agar plate dilution. The following applies: Klebsiella pneumoniae, MOR844, 18 h, 35° C., read-out: MIC. In kind it is cell-based. The method, boiled down: as §1
For experiment [5], the system named is Pseudomonas aeruginosa VGH 84-4. Kind of experiment: in vitro antibacterial MIC, agar plate dilution. In kind it is cell-based. The following applies: Pseudomonas aeruginosa, VGH844, 18 h, 35° C., read-out: MIC. The method, boiled down:
as §1

The subject of another experiment is Klebsiella pneumoniae AD. Kind of experiment: in vitro antibacterial MIC, agar plate dilution. In kind it is cell-based. The settings on record: Klebsiella pneumoniae, 18 h, 35° C., read-out: MIC. The method, boiled down: as §1
Experiment [6] has as its system Staphylococcus aureus ATCC 25913. Kind of experiment: in vitro antibacterial MIC, agar plate dilution. In kind it is cell-based. The settings on record: ATCC25913, 18 hours, 35° C. The method, boiled down:
as §1

Experiment [7] deals with Enterobacter cloacae VGH 84-37. Kind of experiment: in vitro antibacterial MIC, agar plate dilution. In kind it is cell-based. The following applies: Enterobacter cloacae, VGH8437, 18 h, 35° C., read-out: MIC. The method, boiled down: as §1
Experiment [8] has as its system Morganella morganii VGH 84-11. Kind of experiment: in vitro antibacterial MIC, agar plate dilution. The following applies: VGH8411, 18 hours, 35° C., read-out: MIC. In kind it is cell-based. The method, boiled down:
as §1

The test system of experiment [9] is Staphylococcus aureus Smith. Kind of experiment: in vitro antibacterial MIC, agar plate dilution. In kind it is cell-based. The settings on record: Staphylococcus aureus, 18 h, 35° C., read-out: MIC. The method, boiled down:
as §1

Experiment [10] relates to Proteus rettgeri CMC 84-41. Kind of experiment: in vitro antibacterial MIC, agar plate dilution. In kind it is cell-based. The settings on record: Providencia rettgeri, CMC8441, 18 h, 35° C., read-out: MIC. The method, boiled down:
as §1

For experiment [11], the system named is Staphylococcus aureus Smith. Nature of the experiment: in vivo antibacterial activity, survival of infected mice (Table III). Further details: species or system Charles River CD-1 mice. The following applies: subcutaneous. On the procedure: Charles River CD-1 mice were infected with either Klebsiella pneumoniae AD or Staphylococcus aureus Smith. A single subcutaneous dose of the test compound was administered 1/2 hour after infection. […] The results appear in Tables II and III, wherein the representative test compounds are identified by the number of their hereinafter described examples.

The term MIC denotes the lowest concentration found to suppress growth. For `CCn1cc(C(=O)O)c(=O)c2cc(F)c(N3CCN(C)C(c4ccc(Br)s4)C3)cc21` (stereo not drawn) [Example 14, 7-[3-(5-Bromo-2-thienyl)-4-methyl-1-piperazinyl]-1-ethyl-6-fluoro-1,4-dihydro-4-oxo-3-quinolinecarboxylic acid], the MIC in experiment [1] is greater than 256 µg/mL; in experiment [2], greater than 256 µg/mL; in experiment [3], greater than 256 µg/mL; in experiment [4], greater than 256 µg/mL; in experiment [5], greater than 256 µg/mL; in the experiment with Klebsiella pneumoniae AD, 256 µg/mL (≈ 518 µM). The MIC in experiment [6] was 0.5 µg/mL (≈ 1.01 µM); in experiment [7] it was greater than 256 µg/mL; in [8], greater than 256 µg/mL; in experiment [9], 0.25 µg/mL (≈ 0.506 µM); in experiment [10], 128 µg/mL (≈ 259 µM). Besides, the “Survival Ratio 7 Days After Infection” value in [11] (0.5 mg/kg single dose) is reported as 0/5; in [11] (1 mg/kg single dose), 0/5; in experiment [11] (2 mg/kg single dose), 0/5; in [11] (4 mg/kg single dose), 5/5; in [11] (8 mg/kg single dose) it was 5/5.
On to `FCC1CNCCN1` (stereo not drawn) [Example 23, 2-(Fluoromethyl)piperazine], for which the “Survival Ratio 7 Days After Infection” value in [11] (4 mg/kg single dose) is 0/5; in [11] (8 mg/kg single dose), 0/5; in experiment [11] (16 mg/kg single dose) it was 5/5; in experiment [11] (32 mg/kg single dose), 5/5; in experiment [11] (64 mg/kg single dose) it was 5/5.
